Measurements published in patent publication US20230159468A1, “NOVEL FORMS OF PRACINOSTAT DIHYDROCHLORIDE” (Macfarlan Smith Limited, priority 2020, published 2023).
≈ marks a conversion by molar mass, not a printed value. Where “and” joins values, the source holds several entries; their conditions need not be identical. Equal values may be shown once. Read-outs that look alike come from different tables or passages of the source.

Key:
Assay type in all cases: physicochemical
[1] = Dynamic vapor sorption (DVS) with XRPD analysis post-DVS; conditions: for Solid form by XRPD analysis post-DVS: after DVS; for DVS weight change / Hygroscopicity by DVS: between 0-90% RH
Excerpt: Techniques for characterizing crystal and amorphous forms include but are not limited to differential scanning calorimetry (DSC), thermal gravimetric analysis (TGA), dynamic vapor sorption (DVS), X-ray powder diffractometry (XRPD), single crystal X-ray diffraction (SCXRD), proton nuclear magnetic resonance (^1H-NMR), Fourier transform infrared spectroscopy (FTIR Spectroscopy), and Optical Microscopy.

[2] = Solubility in solvent mixture of isopropyl alcohol and water; conditions: organic solvent or mixture, isopropyl alcohol:water about 8:1 (v/v), about 58° C.
Excerpt: In one embodiment, the volume ratio of isopropyl alcohol to water in the solvent mixture is about 7-9:1; particularly about 8:1. In one embodiment, the solution of pracinostat diHCl is a saturated solution. […] Another embodiment optionally further comprises filtering the combination of pracinostat diHCl and solvent mixture to ensure no particles remain, i.e., to obtain the solution of pracinostat diHCl. In a particular embodiment, the weight to volume ratio of pracinostat diHCl to the solvent mixture is about 84-104 mg:1 mL; particularly about 94 mg:1 mL, wherein if the pracinostat diHCl is not fully dissolved in the solvent mixture, the combination of pracinostat diHCl and solvent mixture is filtered to obtain the solution of pracinostat diHCl. In one embodiment, the weight to volume ratio of Eudragit RS PO to the solution of pracinostat diHCl is about 3.75-6.25 mg:1 mL. In one embodiment, the weight ratio of Eudragit RS PO to pracinostat diHCl is about 1 mg: 14-16 mg. Another embodiment further comprises applying heating during the combining or using a solvent mixture that is heated. In another embodiment, the heating occurs at about 50-70° C. (particularly about 60° C.), or the solvent mixture is heated to about 50-70° C. (particularly about 60° C.). In one embodiment, the cooling is to about 0-10° C., particularly to about 5° C. […]

[3] = Solubility studies in pH buffer at 37° C. with HPLC analysis; conditions: for solubility at 1 h / solubility at 4 h: pH buffer, 37 °C, thermodynamic from solid; for Observation-1 hr / Observation-4 hr: ~6 mg in 5 mL
Experimental: Solubility studies are conducted on the pracinostat diHCl co-crystal with fumaric acid according to the following method:
1. Weigh out ˜6 mg pracinostat diHCl co-crystal with fumaric acid in 5 mL pH buffer;
2. Stir samples at 37° C.;
3. After 1 hour, test and record pH, then remove a 2 mL sample for HPLC analysis;
4. Adjust pH of remaining solution using 0.2M NaOH or HCl, if necessary;
5. After 4 hours, test and record pH, then remove a 2 mL sample for HPLC analysis.
The solubility data are collected using an Agilent 1100 Series HPLC system and analyzed using Chemstation software. The method details are listed below.

[4] = Stability studies at 40° C./75% RH, evidenced by XRPD; conditions: open vial covered with Kimwipes and sealed vial
[5] = starting pH 1.75 buffer, single experiments
[6] = starting pH 7.26 buffer, single experiments

In the case of `CCCCc1nc2cc(/C=C/C(=O)NO)ccc2n1CCN(CC)CC` [pracinostat diHCl co-crystal with glycine], the “Solid form by XRPD analysis post-DVS” value [1] is reported as “remains unchanged”, the DVS weight change [1] is reported as about 8.0% and the “Hygroscopicity by DVS” value [1] is reported as “hygroscopic”.
In the case of `CCCCc1nc2cc(/C=C/C(=O)NO)ccc2n1CCN(CC)CC` [pracinostat diHCl co-crystal with L-arginine], the “Solid form by XRPD analysis post-DVS” value [1] is reported as “not stable”, the DVS weight change [1] is reported as about 12% and the “Hygroscopicity by DVS” value [1] is reported as “hygroscopic”.
For `CCCCc1nc2cc(/C=C/C(=O)NO)ccc2n1CCN(CC)CC` [pracinostat diHCl, (E)-3-(2-Butyl-1-(2-(diethylamino)ethyl)-1H-benzo[d]imidazol-5-yl)-N-hydroxyacrylamide], the solubility [2] was about 82600 µg/mL.
For `CCCCc1nc2cc(/C=C/C(=O)NO)ccc2n1CCN(CC)CC`, the solubility at 1 h ([3]; pH 1.75, simulated gastric fluid, starting pH 1.75 buffer, single experiments, read-out: Solubility (mg/mL) 1 hr) was over 1.07 mg/mL, the solubility at 4 h ([3]; pH 1.75, simulated gastric fluid, starting pH 1.75 buffer, single experiments, read-out: Solubility (mg/mL) 4 hr) was over 1.08 mg/mL and the solubility at 1 h ([3]; pH 7.26, aqueous buffer, starting pH 7.26 buffer, average of Exp. 4-6, read-out: Avg. Solubility ± STD (mg/mL) 1 hr) was 0.16 ± 0.01 mg/mL (≈ 446 µM). For the same compound, the solubility at 1 h ([3]; pH 7.26, aqueous buffer, starting pH 7.26 buffer, single experiments, read-out: Solubility (mg/mL) 1 hr) was 0.14 mg/mL (≈ 391 µM), the solubility at 4 h ([3]; pH 7.26, aqueous buffer, starting pH 7.26 buffer, average of Exp. 4-6, read-out: Avg. Solubility ± STD (mg/mL) 4 hr) was 0.1 ± 0.02 mg/mL (≈ 279 µM) and the solubility at 4 h ([3]; pH 7.26, aqueous buffer, starting pH 7.26 buffer, single experiments, read-out: Solubility (mg/mL) 4 hr) was 0.08 mg/mL (≈ 223 µM).
With `CCCCc1nc2cc(/C=C/C(=O)NO)ccc2n1CCN(CC)CC` [pracinostat diHCl co-crystal with fumaric acid] the “Solid form by XRPD analysis post-DVS” value [1] was “remains unchanged”, the DVS weight change [1] was about 1.7% and the “Hygroscopicity by DVS” value [1] was “slightly hygroscopic”. The “Solubility (mg/mL) 1 hr” value [3, 5] was >0.75 mg/mL and >0.98 mg/mL, the “Solubility (mg/mL) 4 hr” value [3, 5] was >0.81 mg/mL and >0.98 mg/mL and the Observation-1 hr ([3]; starting pH 1.75 buffer) was “Clear”. The Observation-4 hr ([3]; starting pH 1.75 buffer) was “Clear”, the “Solubility (mg/mL) 1 hr” value [3, 6] was 0.16 mg/mL and 0.17 mg/mL and the “Solubility (mg/mL) 4 hr” value [3, 6] was 0.12 mg/mL and 0.09 mg/mL. The Observation-1 hr ([3]; starting pH 7.26 buffer) was “Cloudy”, the Observation-4 hr ([3]; starting pH 7.26 buffer) was “Cloudy” and the “Time stable (solid form, by XRPD)” value [4] was “at least 9 months”.
